In patent US10160724B2, “Tetrahydropyridine derivatives and their use as antibacterial agents” (Dong-A St Co., Ltd., priority 2016, dated 2018):
Values after ≈ are worked out from the molar mass of the structure shown.

What was measured:
Assay in all cases: In vitro antibiotic activity, agar dilution method (Mueller-Hinton agar, NCCLS)
Type in all cases: cell-based
P. aeruginosa PAO1 = conditions: Pseudomonas aeruginosa, PAO1; agar dilution, Mueller-Hinton agar; read-out: MIC for P. aeruginosa PAO1
Experimental: (§1) To measure the antibiotic activity of the compounds prepared by Examples, antibiotic activity test in vitro was performed by agar dilution method using Mueller-Hinton agar according to the NCCLS (National Committee for Clinical Laboratory Standards. 2000. Methods for dilution antimicrobial susceptibility tests for bacteria that grow aerobiocally. Approved standard, NCCLS document M7-M5, 5th ed, vol 20, no 2. National Committee for Clinical Laboratory Standards, Wayne, Pa.). The test strain was Escherichia coli (ATCC 25922), Klebsiella pneumonia (ATCC 29665) and Pseudomonas aeriginosa (PAO1).

E. coli ATCC 25922 = conditions: Escherichia coli, ATCC25922; agar dilution, Mueller-Hinton agar; read-out: MIC for E. coli ATCC 25922
Experimental: as §1

K. pneumoniae ATCC 29665 = conditions: Klebsiella pneumoniae, ATCC29665; agar dilution, Mueller-Hinton agar; read-out: MIC for K. pneumoniae ATCC 29665
Experimental: as §1

Question: Which MIC (P. aeruginosa PAO1) does the source give for CC(CCN1CC=C(c2ccc(C#CCCCOC(N)=O)cc2)CC1)(C(=O)NO)S(C)(=O)=O (stereo not drawn) [Example 27, 5-(4-(1-(4-(hydroxyamino)-3-methyl-3-(methylsulfonyl)-4-oxobutyl)-1,2,3,6-tetrahydropyridin-4-yl)phenyl)pent-4-yn-1-yl carbamate] here?
Answer: 1 to 8 µg/mL (≈ 2.09 to 16.8 µM)

Question: What about the MIC (E. coli ATCC 25922) of the same compound?
Answer: < 1 µg/mL

Question: What about the MIC (K. pneumoniae ATCC 29665) of the same compound?
Answer: 1 to 8 µg/mL (≈ 2.09 to 16.8 µM)

Question: How did the MIC (P. aeruginosa PAO1) turn out when COCCCC#Cc1ccc(C2=CCN(CCC(C)(C(=O)NO)S(C)(=O)=O)CC2)cc1 (stereo not drawn) [Example 28, N-hydroxy-4-(4-(4-(5-methoxypent-1-yn-1-yl)phenyl)-3,6-dihydropyridin-1(2H)-yl)-2-methyl-2-(methylsulfonyl)butanamide] was run?
Answer: 1 to 8 µg/mL (≈ 2.23 to 17.8 µM)

Question: What about the MIC (E. coli ATCC 25922) of the same compound?
Answer: < 1 µg/mL

Question: And the MIC (K. pneumoniae ATCC 29665)?
Answer: < 1 µg/mL

Question: How did the MIC (P. aeruginosa PAO1) turn out when CC(CCN1CC=C(c2ccc(C#CCCCCO)cc2)CC1)(C(=O)NO)S(C)(=O)=O (stereo not drawn) [Example 29, N-hydroxy-4-(4-(4-(6-hydroxyhex-1-yn-1-yl)phenyl)-3,6-dihydropyridin-1(2H)-yl)-2-methyl-2-(methylsulfonyl)butanamide] was run?
Answer: 1 to 8 µg/mL (≈ 2.23 to 17.8 µM)

Question: And the MIC (E. coli ATCC 25922)?
Answer: < 1 µg/mL

Question: What about the MIC (K. pneumoniae ATCC 29665) of the same compound?
Answer: 1 to 8 µg/mL (≈ 2.23 to 17.8 µM)

Question: Which results are given for CC(CCN1CC=C(c2ccc(C#CCCCCN3CCOCC3)cc2)CC1)(C(=O)NO)S(C)(=O)=O (stereo not drawn) [Example 30, N-hydroxy-2-methyl-2-(methylsulfonyl)-4-(4-(4-(6-morpholinohex-1-yn-1-yl)phenyl)-3,6-dihydropyridin-1(2H)-yl)butanamide]?
Answer: MIC (P. aeruginosa PAO1): 1 to 8 µg/mL (≈ 1.93 to 15.5 µM); MIC (E. coli ATCC 25922): < 1 µg/mL; MIC (K. pneumoniae ATCC 29665): 1 to 8 µg/mL (≈ 1.93 to 15.5 µM)

Question: For CN(C)CC#Cc1ccc(C2=CCN(CCC(C)(C(=O)NO)S(C)(=O)=O)CC2)cc1F (stereo not drawn) [Example 31, 4-(4-(4-(3-(dimethylamino)prop-1-yn-1-yl)-3-fluorophenyl)-3,6-dihydropyridin-1(2H)-yl)-N-hydroxy-2-methyl-2-(methylsulfonyl)butanamide], which MIC (P. aeruginosa PAO1) is on record?
Answer: 1 to 8 µg/mL (≈ 2.21 to 17.7 µM)

Question: What about the MIC (E. coli ATCC 25922) of the same compound?
Answer: < 1 µg/mL

Question: What about the MIC (K. pneumoniae ATCC 29665) of the same compound?
Answer: 1 to 8 µg/mL (≈ 2.21 to 17.7 µM)

Question: How did the MIC (P. aeruginosa PAO1) turn out when CN(C)CC#Cc1c(F)cc(C2=CCN(CCC(C)(C(=O)NO)S(C)(=O)=O)CC2)cc1F (stereo not drawn) [Example 32, 4-(4-(4-(3-(dimethylamino)prop-1-yn-1-yl)-3,5-difluorophenyl)-3,6-dihydropyridin-1(2H)-yl)-N-hydroxy-2-methyl-2-(methylsulfonyl)butanamide] was run?
Answer: 1 to 8 µg/mL (≈ 2.13 to 17 µM)

Question: And the MIC (E. coli ATCC 25922)?
Answer: < 1 µg/mL

Question: And the MIC (K. pneumoniae ATCC 29665)?
Answer: 1 to 8 µg/mL (≈ 2.13 to 17 µM)

Question: For CN(C)CC#Cc1ccc(C2=CCN(CCC(C)(C(=O)NO)S(C)(=O)=O)CC2)c(F)c1 (stereo not drawn) [Example 33, 4-(4-(4-(3-(dimethylamino)prop-1-yn-1-yl)-2-fluorophenyl)-3,6-dihydropyridin-1(2H)-yl)-N-hydroxy-2-methyl-2-(methylsulfonyl)butanamide], which MIC (P. aeruginosa PAO1) is on record?
Answer: 1 to 8 µg/mL (≈ 2.21 to 17.7 µM)

Question: And the MIC (E. coli ATCC 25922)?
Answer: 1 to 8 µg/mL (≈ 2.21 to 17.7 µM)

Question: And the MIC (K. pneumoniae ATCC 29665)?
Answer: 8 to 16 µg/mL (≈ 17.7 to 35.4 µM)

Question: What does the source list for CC(CCN1CC=C(c2ccc(C#Cc3cccs3)cc2)CC1)(C(=O)NO)S(C)(=O)=O (stereo not drawn) [Example 34, N-hydroxy-2-methyl-2-(methylsulfonyl)-4-(4-(4-(thiophen-2-ylethynyl)phenyl)-3,6-dihydropyridin-1(2H)-yl)butanamide]?
Answer: MIC (P. aeruginosa PAO1): 1 to 8 µg/mL (≈ 2.18 to 17.4 µM); MIC (E. coli ATCC 25922): < 1 µg/mL; MIC (K. pneumoniae ATCC 29665): 1 to 8 µg/mL (≈ 2.18 to 17.4 µM)

Question: For CC(CCN1CC=C(c2ccc(C#Cc3ccc([N+](=O)[O-])cc3)cc2)CC1)(C(=O)NO)S(C)(=O)=O (stereo not drawn) [Example 35, N-hydroxy-2-methyl-2-(methylsulfonyl)-4-(4-(4-((4-nitrophenyl)ethynyl)phenyl)-3,6-dihydropyridin-1(2H)-yl)butanamide], which MIC (P. aeruginosa PAO1) is on record?
Answer: > 16 µg/mL

Question: And the MIC (E. coli ATCC 25922)?
Answer: > 16 µg/mL

Question: And the MIC (K. pneumoniae ATCC 29665)?
Answer: > 16 µg/mL

Question: What does the source list for CC(CCN1CC=C(c2ccc(C#Cc3cccnc3)cc2)CC1)(C(=O)NO)S(C)(=O)=O (stereo not drawn) [Example 36, N-hydroxy-2-methyl-2-(methylsulfonyl)-4-(4-(4-(pyridin-3-ylethynyl)phenyl)-3,6-dihydropyridin-1(2H)-yl)butanamide]?
Answer: MIC (P. aeruginosa PAO1): 1 to 8 µg/mL (≈ 2.2 to 17.6 µM); MIC (E. coli ATCC 25922): < 1 µg/mL; MIC (K. pneumoniae ATCC 29665): 1 to 8 µg/mL (≈ 2.2 to 17.6 µM)

Question: For CC(CCN1CC=C(c2ccc(C#Cc3ccc(O)cc3)cc2)CC1)(C(=O)NO)S(C)(=O)=O (stereo not drawn) [Example 37, N-hydroxy-4-(4-(4-((4-hydroxyphenyl)ethynyl)phenyl)-3,6-dihydropyridin-1(2H)-yl)-2-methyl-2-(methylsulfonyl)butanamide], which MIC (P. aeruginosa PAO1) is on record?
Answer: > 16 µg/mL

Question: What about the MIC (E. coli ATCC 25922) of the same compound?
Answer: < 1 µg/mL

Question: And the MIC (K. pneumoniae ATCC 29665)?
Answer: > 16 µg/mL

Question: How did the MIC (P. aeruginosa PAO1) turn out when Cn1cnc(C#Cc2ccc(C3=CCN(CCC(C)(C(=O)NO)S(C)(=O)=O)CC3)cc2)c1 (stereo not drawn) [Example 38, N-hydroxy-2-methyl-4-(4-(4-((1-methyl-1H-imidazol-4-yl)ethynyl)phenyl)-3,6-dihydropyridin-1(2H)-yl)-2-(methylsulfonyl)butanamide] was run?
Answer: 1 to 8 µg/mL (≈ 2.19 to 17.5 µM)

Question: What about the MIC (E. coli ATCC 25922) of the same compound?
Answer: < 1 µg/mL

Question: What about the MIC (K. pneumoniae ATCC 29665) of the same compound?
Answer: 1 to 8 µg/mL (≈ 2.19 to 17.5 µM)

Question: What does the source list for CN1CC(C#Cc2ccc(C3=CCN(CCC(C)(C(=O)NO)S(C)(=O)=O)CC3)cc2)C1 (stereo not drawn) [Example 39, N-hydroxy-2-methyl-4-(4-(4-((1-methylazetidin-3-yl)ethynyl)phenyl)-3,6-dihydropyridin-1(2H)-yl)-2-(methylsulfonyl)butanamide]?
Answer: MIC (P. aeruginosa PAO1): 8 to 16 µg/mL (≈ 18 to 35.9 µM); MIC (E. coli ATCC 25922): 8 to 16 µg/mL (≈ 18 to 35.9 µM); MIC (K. pneumoniae ATCC 29665): 8 to 16 µg/mL (≈ 18 to 35.9 µM)

Question: For CC(=O)N1CC(C#Cc2ccc(C3=CCN(CCC(C)(C(=O)NO)S(C)(=O)=O)CC3)cc2)C1 (stereo not drawn) [Example 40, 4-(4-(4-((1-acetylazetidin-3-yl)ethynyl)phenyl)-3,6-dihydropyridin-1(2H)-yl)-N-hydroxy-2-methyl-2-(methylsulfonyl)butanamide], which MIC (P. aeruginosa PAO1) is on record?
Answer: 1 to 8 µg/mL (≈ 2.11 to 16.9 µM)

Question: What about the MIC (E. coli ATCC 25922) of the same compound?
Answer: 1 to 8 µg/mL (≈ 2.11 to 16.9 µM)

Question: What about the MIC (K. pneumoniae ATCC 29665) of the same compound?
Answer: 1 to 8 µg/mL (≈ 2.11 to 16.9 µM)

Question: For CC(CCN1CC=C(c2ccc(C#CC3CN(S(C)(=O)=O)C3)cc2)CC1)(C(=O)NO)S(C)(=O)=O (stereo not drawn) [Example 41, N-hydroxy-2-methyl-2-(methylsulfonyl)-4-(4-(4-((1-(methylsulfonyl)azetidin-3-yl)ethynyl)phenyl)-3,6-dihydropyridin-1(2H)-yl)butanamide], which MIC (P. aeruginosa PAO1) is on record?
Answer: 8 to 16 µg/mL (≈ 15.7 to 31.4 µM)

Question: And the MIC (E. coli ATCC 25922)?
Answer: 1 to 8 µg/mL (≈ 1.96 to 15.7 µM)

Question: What about the MIC (K. pneumoniae ATCC 29665) of the same compound?
Answer: 8 to 16 µg/mL (≈ 15.7 to 31.4 µM)

Question: What does the source list for CC(CCN1CC=C(c2ccc(C#CC#CCCCO)c(F)c2)CC1)(C(=O)NO)S(C)(=O)=O (stereo not drawn) [Example 42, 4-(4-(3-fluoro-4-(7-hydroxyhepta-1,3-diyn-1-yl)phenyl)-3,6-dihydropyridin-1(2H)-yl)-N-hydroxy-2-methyl-2-(methylsulfonyl)butanamide]?
Answer: MIC (P. aeruginosa PAO1): 1 to 8 µg/mL (≈ 2.1 to 16.8 µM); MIC (E. coli ATCC 25922): < 1 µg/mL; MIC (K. pneumoniae ATCC 29665): 1 to 8 µg/mL (≈ 2.1 to 16.8 µM)

Question: With CC(CCN1CC=C(c2ccc(C#CC#CCCO)c(F)c2)CC1)(C(=O)NO)S(C)(=O)=O (stereo not drawn) [Example 43, 4-(4-(3-fluoro-4-(6-hydroxyhexa-1,3-diyn-1-yl)phenyl)-3,6-dihydropyridin-1(2H)-yl)-N-hydroxy-2-methyl-2-(methylsulfonyl)butanamide] as the compound, how does the MIC (P. aeruginosa PAO1) read?
Answer: 1 to 8 µg/mL (≈ 2.16 to 17.3 µM)

Question: And the MIC (E. coli ATCC 25922)?
Answer: < 1 µg/mL

Question: And the MIC (K. pneumoniae ATCC 29665)?
Answer: 1 to 8 µg/mL (≈ 2.16 to 17.3 µM)

Question: Which MIC (P. aeruginosa PAO1) does the source give for CC(CCN1CC=C(c2ccc(C#CC#CC3CC3)c(F)c2)CC1)(C(=O)NO)S(C)(=O)=O (stereo not drawn) [Example 44, 4-(4-(4-(cyclopropylbuta-1,3-diyn-1-yl)-3-fluorophenyl)-3,6-dihydropyridin-1(2H)-yl)-N-hydroxy-2-methyl-2-(methylsulfonyl)butanamide] here?
Answer: 1 to 8 µg/mL (≈ 2.18 to 17.4 µM)

Question: And the MIC (E. coli ATCC 25922)?
Answer: < 1 µg/mL

Question: And the MIC (K. pneumoniae ATCC 29665)?
Answer: 1 to 8 µg/mL (≈ 2.18 to 17.4 µM)

Question: Which results are given for CN(C)CC#CC#Cc1ccc(C2=CCN(CCC(C)(C(=O)NO)S(C)(=O)=O)CC2)cc1F (stereo not drawn) [Example 45, 4-(4-(4-(5-(dimethylamino)penta-1,3-diyn-1-yl)-3-fluorophenyl)-3,6-dihydropyridin-1(2H)-yl)-N-hydroxy-2-methyl-2-(methylsulfonyl)butanamide]?
Answer: MIC (P. aeruginosa PAO1): 1 to 8 µg/mL (≈ 2.1 to 16.8 µM); MIC (E. coli ATCC 25922): < 1 µg/mL; MIC (K. pneumoniae ATCC 29665): 1 to 8 µg/mL (≈ 2.1 to 16.8 µM)
